Read-outs that look alike come from different tables or passages of the source.
Legend:
Type in all cases: cell-based
[1] = tested on: HIV-1 with WT (wild type) RT in P4 cells; assay: Anti-HIV assay on P4 cell line, WT RT; conditions: for EC50 / SI (selectivity index = CC50/EC50): P4 cell line, WT RT; for EC50: read-out: EC50 WT
Description: For the antiviral and the cytotoxicity assays, the drugs were diluted in complete DMEM medium. In these experiments, drugs were diluted in triplicate wells in a 96-well plate in six, 5 fold serial dilutions.
Two days later, co-cultivation with SupT1 cells (a human T-cell lymphoma cell line) was initiated to facilitate rapid production of progeny virions. Production of virus was measured by using the Innotest HIV Antigen mAb p24 kit (Innogenetics). At the peak of production cultures were harvested and filtered. The virus stocks were stored at −80° C. until used.
Anti-HIV activity and cytotoxicity of the compounds were tested on a P4 cell line. […] The P4 cells were cultured in complete DMEM medium supplemented with 10% fetal bovine serum (FBS), 0.5% of Penicillin/Streptomycin and G418 at 0.5 mg/ml. Exponentially growing cells were trypsinized, centrifuged and split twice weekly at 5.10^4 cells/ml.
The P4 cells are HIV-infectible Hela-CD4 cells that carry the bacterial lacZ gene under the control of the HIV-1 long terminal repeat (LTR). In this cell line, transcription of the LacZ gene is driven by the HIV-1 LTR. […] In other words, in this system, the expression level of the β-galactosidase gene is proportional to the viral replication.
(§1) Briefly, in the anti-HIV assay 100 Ål of P4 cells were plated in 96-well plate at a concentration of 0.4 10^5 cells/ml and incubated at 37° C., 5% CO2. After 48 h, the medium was removed and 100 Ål of the different drugs dilutions were added to the cells. Four hours after the addition of the drugs all cells were infected with equal amount of cell-free virus, corresponding to 100 ng of HIV p24 antigen. After 48 h of incubation at 37° C., 5% CO2, β-galactosidase activity was measured using chlorophenol red-β-D-galactopyranoside assays.
Each assay was performed a minimum of three times. The 50% effective concentration (Ec50) was calculated from each dose response curve using the CurveExpert 1.3 software.

[2] = tested on: HIV-1 mutant Cys181RT in P4 cells; assay: Anti-HIV assay on P4 cells, Cys181RT mutant
Excerpt: (§2) In order to introduce mutation(s) at the level of the pol gene coding for the RT in the pNL4-3 plasmid containing the complete viral genome (Adachi et al., 1986. J. Virol., Vol. 59 p 284-291) we used the “Quick change mutagenesis kit” (Stratagene). The following mutations were separately introduced in pNL4-3: L100I, K103N, V108I, Y181C, Y188C, and the double mutations K103N/V108I. These mutations were chosen because of the resistance that they confer to existing NNRTI. The production procedure of the mutant viral stocks is identical to the one described above.
(§3) Anti-HIV activity and cytotoxicity of the compounds were tested on a P4 cell line. The P4 cell line (Clavel & Charneau, 1994. J. Virol., Vol. 68 p 1179-1185) was provided by Dr. François Clavel (Unité de recherche antivirale de l'hôpital Xavier Bichat Paris: Inserm). The P4 cells were cultured in complete DMEM medium supplemented with 10% fetal bovine serum (FBS), 0.5% of Penicillin/Streptomycin and G418 at 0.5 mg/ml. Exponentially growing cells were trypsinized, centrifuged and split twice weekly at 5.10^4 cells/ml.
(§4) The P4 cells are HIV-infectible Hela-CD4 cells that carry the bacterial lacZ gene under the control of the HIV-1 long terminal repeat (LTR). In this cell line, transcription of the LacZ gene is driven by the HIV-1 LTR. As such, the cytoplasmic accumulation of β-galactosidase is strictly dependent on the presence of the HIV transactivator Tat produced during the intracellular viral replication (Clavel & Charneau, 1994. J. Virol., Vol. 68, p. 1179-1185). In other words, in this system, the expression level of the β-galactosidase gene is proportional to the viral replication.
as §1
(§5) The absorbance was measured on a Benchmark™ Microplate Reader (Biorad) (λ=570 nm) and compared with 12 cell control replicates (no virus or drug added) and 12 virus control wells (no drug added). Each assay was performed a minimum of three times. The 50% effective concentration (Ec50) was calculated from each dose response curve using the CurveExpert 1.3 software. As Nevirapine activity corresponds to its published values (10-100 nM), the data are consistent with other measures of viral replication.

[3] = tested on: HIV-1 mutant Cys181RT in MT4 cells; assay: Anti-HIV assay on MT4 cells, Cys181RT mutant
Excerpt: as §2
(§6) Anti-HIV activity of the compounds was tested on MT-4 cell line. The MT-4 cell line (Larder et al. 1989. Sciences, Vol. 243 p 1731) was received from the NIH AIDS Research and Reference Reagent Program. These cells were cultured in RPMI medium supplemented with 10% fetal bovine serum (FBS), and 1% Penicillin/Streptomycin. The cultures were split regularly to keep cells densities between 0.3 to 1.2 10^6 cells/ml.
(§7) The MT-4 cells rapidly die upon infection by HIV. In this system there is an inverse correlation between cells survival and the amount of viral replication.
(§8) Briefly, in the anti-HIV assay exponentially growing MT-4 cells were infected with HIV-1. 100 μl of infected MT-4 cells were seeded in 96-well plate at a concentration of 0.4 10^5 cells/ml, and 100 μl of the different drugs dilutions were added to the cells. After 4 days of incubation at 37° C., 5% CO2, cells survival was measured using MTS (3-(4-5-dimethylthiazol-2-yl)-5-(−(3-carboxymethoxyphenyl)-2-(4-sulfophenyl)-2H-tetrazolium) assays. This compound is reduced by viable cells in a colored soluble formazan salt.
(§9) The absorbance was measured on a Benchmark™ Microplate Reader (Biorad) (λ=490 nm) and compared with 12 cell control replicates (nor virus nor drug added) and 12 virus control wells (no drug added). Each assay was performed a minimum of three times. The 50% effective concentration (EC50) was calculated from each dose response curve using the CurveExpert 1.3 software.

[4] = tested on: HIV-1 mutant Ile100RT in MT4 cells; assay: Anti-HIV assay on MT4 cells, Ile100RT mutant
Excerpt: as §2, §6, §7, §8, §9

[5] = tested on: HIV-1 mutant Ile108RT in MT4 cells; assay: Anti-HIV assay on MT4 cells, Ile108RT mutant
Excerpt: as §2, §6, §7, §8, §9

[6] = tested on: HIV-1 mutant Asn103/Ile108RT in P4 cells; assay: Anti-HIV assay on P4 cells, Asn103/Ile108RT double mutant
Excerpt: as §2, §3, §4, §1, §5

[7] = P4, mutant Cys181RT, read-out: EC50 Cys181RT P4
[8] = Human immunodeficiency virus 1, read-out: EC50 Cys181RT P4
[9] = Human immunodeficiency virus 1, MT4, read-out: EC50 Cys181RT MT4
[10] = Human immunodeficiency virus 1, MT4, read-out: EC50 Ile100RT MT4
[11] = Human immunodeficiency virus 1, MT4, read-out: EC50 Ile108RT MT4
[12] = Human immunodeficiency virus 1, read-out: EC50 Asn103/Ile108RT F4
[13] = column head prints F4, double mutant Asn103/Ile108RT, read-out: EC50 Asn103/Ile108RT F4
[14] = MT4, mutant Ile108RT, read-out: EC50 Ile108RT MT4

SMILES | EC50 [1] | EC50 [2, 7] | EC50 ([1]; Human immunodeficiency virus 1) | EC50 [2, 8] | EC50 [3, 9] | EC50 [4, 10] | EC50 [5, 11] | EC50 [6, 12] | SI (selectivity index = CC50/EC50) [1] | EC50 [6, 13] | other results
CCOC(=O)c1c(OC2CC(C)CC(C)C2)c(CC)c(C)[nH]c1=O (single isomer, unassigned) [Z37inv] | 36 nM | 1970 nM |  |  |  |  |  |  |  |  | antiviral activity compared with Z37A or the mixture of stereoisomers [1]: higher than the activity observed for either Z37A or the mixture of stereoisomers
O=C1Nc2ccc(Cl)cc2[C@@](C#CC2CC2)(C(F)(F)F)O1 [Efavirenz, reference compound] |  |  | < 1 nM | < 1 nM | < 1 nM | 178 nM | < 1 nM | 9 nM |  |  | 
Cc1ccnc2c1NC(=O)c1cccnc1N2C1CC1 [Nevirapine, reference compound] |  |  | 29 nM | 10000 nM |  | 2060 nM | 1270 nM | 6250 nM | 3448 |  | EC50 Cys181RT MT4 ([3]; MT4, mutant Cys181RT): Inactive
CCc1c(C)[nH]c(=O)c(CO)c1OC1CC(C)CC(C)C1 (centres unmarked) [Z45inv] | 23 nM | 496 nM |  |  |  |  |  |  |  | 19200 nM | 
CCc1c(C)[nH]c(=O)c([N+](=O)[O-])c1OC1CC(C)CC(C)C1 (centres unmarked) [Z91inv, 3-nitro-5-ethyl-6-methyl-4-[(3,5-dimethylcyclohexyl)oxy]pyridine-2(1H)-one] |  |  | < 1 nM | 46 nM | 2440 nM | 1380 nM | 72 nM | 180 nM | >37200 |  | 
CCc1c(C)[nH]c(=O)c(CSC(C)=O)c1OC1CC(C)CC(C)C1 (centres unmarked) [Z114] | 7 nM | 87 nM |  |  |  |  |  |  |  | 1930 nM | EC50 Cys181RT MT4 ([3]; MT4, mutant Cys181RT): Inactive; EC50 Ile100RT MT4 ([4]; MT4, mutant Ile100RT): Inactive; EC50 [5, 14]: 12000 nM
CCc1c(C)[nH]c(=O)c(N(C)C)c1OC1CC(C)CC(C)C1 (centres unmarked) [Z150, 3-(dimethylamino)-5-ethyl-6-methyl-4-[(3,5-dimethylcyclohexyl)oxy]pyridine-2(1H)-one] |  |  | < 1 nM | 61 nM | 320 nM | 87 nM | < 1 nM | 27 nM | >66000 |  | 
CCc1c(C)[nH]c(=O)c(CN=[N+]=[N-])c1OC1CC(C)CC(C)C1 (centres unmarked) [Z153] | < 1 nM | 108 nM |  |  |  |  |  |  |  | 70 nM | EC50 ([3]; MT4, mutant Cys181RT, read-out: EC50 Cys181RT MT4): 780 nM; EC50 ([4]; MT4, mutant Ile100RT, read-out: EC50 Ile100RT MT4): 187 nM; EC50 [5, 14]: 8 nM
CCc1c(C)[nH]c(=O)c(C)c1OC1CC(C)CC(C)C1 (centres unmarked) [Z154] | < 1 nM |  |  |  |  |  |  |  |  | 88 nM | 

Source: US20070275953A1 (priority 2003, published 2007)
